Results as given in US5849709A, “Saccharopeptides and derivatives thereof” (Glycomed Incorporated, priority 1995, dated 1998).

Tests used:
β-glucuronidase = assay: β-Glucuronidase inhibition assay (Sigma kit 325-A, phenolphthalein glucuronic acid substrate); type: biochemical; conditions: 15 μl of 50 mM 9β; for A550 value (β-glucuronidase assay): 550 nm, pH 4.5
Protocol: The β-glucuronidase inhibition assay is preferably performed in a solvent. Examples of the solvent include water and a suitable buffer, preferably an acetate or an AMP (2-amino-2-methyl-1-propanol) buffer. Phenolphthalein mono-β-glucuronic acid and a saccharopeptide substrate are treated with the enzyme at room temperature, at a pH of about 4-5. The reaction period ranges from 0.5-2 hours. After completion of the reaction, the enzymic reaction is stopped by adjusting the pH and the absorbance is measured at 550 nm.
Composition 9β was used to measure the β-glucuronidase activity, and the measurement was performed in the same manner as that of the conventional method.
The procedure was carried out according to instructions provided in the Sigma kit 325-A. The reagents used were provided in the kit and the proportions of the reagents used is described in the table below:
______________________________________
*0.2M sodium acetate buffer, pH 4.5 at 25° C.;
^# 30 mM phenolphthalein glucuronic acid (PGA), pH 4.5 at 25°
All components, except PGA, were pre-incubated at room temperature for 30 min, PGA was then added to the mixture. At various time points (0.5, 1 and 2h), 2 μl aliquots were removed and added to 1 ml assay diluent, mixed and absorbance read at 550 nm against the blank (A550). The assay diluent is a mixture of acetate buffer (1.44 ml), water (0.96 ml) and AMP (2-amino-2-methyl-1-propanol) buffer (12 ml, 0.1M AMP, pH 11, containing 0.2% sodium lauryl sulfate).

human recombinant bFGF = human recombinant bFGF (Homo sapiens, UniProt P09038); assay: UC-PBA assay: binding of RO-12 UC cells to bFGF coated micro-titer wells; type: cell-based; conditions: for bFGF binding activity in the UC-PBA assay: heparin as positive control
Chain of human recombinant bFGF (P09038 134-288): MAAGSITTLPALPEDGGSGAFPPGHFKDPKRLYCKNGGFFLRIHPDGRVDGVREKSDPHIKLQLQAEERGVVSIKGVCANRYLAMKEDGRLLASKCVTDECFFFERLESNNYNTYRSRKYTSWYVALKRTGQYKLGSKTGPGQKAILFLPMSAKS
Protocol: The effect of compositions 26 on the binding of RO-12 UC cells to bFGF coated micro-titer wells was determined as described by Ishihara, M., et al., Anal Biochem (1992) 202:310-315. (Also see U.S. Pat. No. 5,296,471, issued Mar. 22, 1994). Bound cells are readily quantitated as total protein.
The assay was run as follows: Fifty microliters of 10 μg/ml human recombinant bFGF was added to wells of a 96-well tissue culture plate and incubated overnight at 4° C. The wells were aspirated with PBS to remove any unbound bFGF, rinsed twice with PBS, and subsequently incubated with PBS containing 5% (v/v) fetal bovine serum for 1 hour at room temperature. RO-12 UC cells were suspended at a density of 3×10^6 cells/ml in PBS containing 5% fetal bovine serum. To this mixture was added the desired amount of sulfated composition, or heparin. They were made up in PBS plus 2.5% fetal bovine serum. A control was also run, containing only PBS plus 2.5% fetal bovine serum. Next, 100 μl of the cell suspension was immediately added to the microtiter wells, and incubated for 5 minutes, after which the wells were washed 3 times with PBS. Finally, the amount of cell protein bound to the wells was determined by dissolving the bound cells in 20 μl of 5% SDS and measuring the protein concentration of the cell lysates. BSA was used as the standard.
(§1) The APTT values of composition 26 were determined as described in U.S. Pat. No. 5,296,471. Table 3 lists the results for the UC-PBA assay, the ACE cell growth inhibition assay, and the APTT values respectively.

APTT = assay: APTT
Protocol: as §1

IC50 (human recombinant bFGF; RO-12 UC cells, bFGF coated wells) | bFGF binding activity in the UC-PBA assay (human recombinant bFGF) | Compound | reduction of β-glucuronidase activity (β-glucuronidase) | A550 value (β-glucuronidase assay) (β-glucuronidase; 0.5 h, room temperature (control 0.104)) | A550 value (β-glucuronidase assay) (β-glucuronidase; 1.0 h, room temperature (control 0.199)) | A550 value (β-glucuronidase assay) (β-glucuronidase; 2.0 h, room temperature (control 0.396)) | APTT value (APTT; as described in U.S. Pat. No. 5,296,471) | APTT value, comparison in words (APTT; versus other compounds of similar size)
– | – | [N-]=[N+]=N[C@@H]1O[C@H](C(=O)N[C@@H]2O[C@H](C(=O)O)[C@@H](O)[C@H](O)[C@H]2O)[C@@H](O)[C@H](O)[C@H]1O [Composition 9β, N-(β-D-glucopyran-1-osyluronic acid)-1-azido-1-deoxy-β-D-glucopyranuronamide] | about 85% | 0.014 | 0.030 | 0.059 | – | –
372 nM | comparable to heparin | O=C(CCC(=O)N[C@@H]1O[C@H](COS(=O)(=O)O)[C@@H](O[C@H]2O[C@H](COS(=O)(=O)O)[C@@H](O[C@H]3O[C@H](COS(=O)(=O)O)[C@@H](OS(=O)(=O)O)[C@H](OS(=O)(=O)O)[C@H]3OS(=O)(=O)O)[C@H](OS(=O)(=O)O)[C@H]2OS(=O)(=O)O)[C@H](OS(=O)(=O)O)[C@H]1OS(=O)(=O)O)N[C@@H]1O[C@H](COS(=O)(=O)O)[C@@H](O[C@H]2O[C@H](COS(=O)(=O)O)[C@@H](O[C@H]3O[C@H](COS(=O)(=O)O)[C@@H](OS(=O)(=O)O)[C@H](OS(=O)(=O)O)[C@H]3OS(=O)(=O)O)[C@H](OS(=O)(=O)O)[C@H]2OS(=O)(=O)O)[C@H](OS(=O)(=O)O)[C@H]1OS(=O)(=O)O [Composition 26] | – | – | – | – | 14.2% | significantly lower than that of other compounds of similar size
– | inhibits RO-12 UC cell binding | Heparin [reference compound] | – | – | – | – | – | –
